Each compound was assayed against T1, angiotensin converting enzyme (Oryctolagus cuniculus, UniProt P12822) (assay: Spectrophotometric Assay for Angiotensin Converting Enzyme Inhibitors). Settings: substrate benzoyl-glycyl-histidyl-leucine; crude ACE extract from rabbit lung acetone powder; 30 minutes at 37° C.
T1 construct: The ACE was extracted from rabbit lung acetone powder; tissue Pel-Freez Biol. Inc; host or cells: rabbit lung (acetone powder)
T1 sequence (P12822 34-1310): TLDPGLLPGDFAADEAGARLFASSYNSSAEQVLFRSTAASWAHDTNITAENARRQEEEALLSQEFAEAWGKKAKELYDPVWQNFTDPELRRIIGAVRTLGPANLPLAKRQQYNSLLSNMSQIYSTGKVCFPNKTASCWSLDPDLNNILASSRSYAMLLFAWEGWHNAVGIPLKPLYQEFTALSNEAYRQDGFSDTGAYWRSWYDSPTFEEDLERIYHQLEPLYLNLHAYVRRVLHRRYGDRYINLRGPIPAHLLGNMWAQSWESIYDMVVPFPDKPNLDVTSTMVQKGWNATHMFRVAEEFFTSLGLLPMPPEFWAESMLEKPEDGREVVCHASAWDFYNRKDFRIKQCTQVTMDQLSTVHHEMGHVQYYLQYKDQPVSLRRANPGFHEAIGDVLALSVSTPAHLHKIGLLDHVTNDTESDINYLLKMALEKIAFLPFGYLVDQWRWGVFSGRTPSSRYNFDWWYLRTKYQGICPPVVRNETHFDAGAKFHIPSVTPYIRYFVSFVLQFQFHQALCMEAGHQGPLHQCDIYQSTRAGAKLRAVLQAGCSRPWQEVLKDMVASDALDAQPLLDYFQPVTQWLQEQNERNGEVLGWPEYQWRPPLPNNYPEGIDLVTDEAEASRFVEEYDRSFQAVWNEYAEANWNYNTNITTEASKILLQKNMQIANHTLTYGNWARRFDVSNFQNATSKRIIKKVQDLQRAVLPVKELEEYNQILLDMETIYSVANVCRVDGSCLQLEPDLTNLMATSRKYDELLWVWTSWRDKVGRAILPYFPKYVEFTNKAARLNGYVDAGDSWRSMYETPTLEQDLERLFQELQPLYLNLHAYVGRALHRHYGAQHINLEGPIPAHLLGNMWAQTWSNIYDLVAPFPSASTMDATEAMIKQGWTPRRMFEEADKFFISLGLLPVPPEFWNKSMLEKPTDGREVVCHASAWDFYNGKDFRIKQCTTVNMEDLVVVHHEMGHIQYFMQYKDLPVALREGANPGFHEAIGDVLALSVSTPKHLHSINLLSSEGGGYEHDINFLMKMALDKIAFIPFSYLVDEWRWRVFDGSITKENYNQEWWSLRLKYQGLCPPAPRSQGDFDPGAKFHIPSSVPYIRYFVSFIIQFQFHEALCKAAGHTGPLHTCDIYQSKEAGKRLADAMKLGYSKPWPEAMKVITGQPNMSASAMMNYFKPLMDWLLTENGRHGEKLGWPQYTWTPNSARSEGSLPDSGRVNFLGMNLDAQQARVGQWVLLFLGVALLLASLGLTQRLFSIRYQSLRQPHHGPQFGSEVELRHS
Format: biochemical
Text: The activity of the novel compounds of this invention as hypotensive agents was established in two systems which measure their ability as angiotensin converting enzyme inhibitors; by utilizing a spectrophotometric assay of the compounds in vitro and by the measurement of the blood pressure lowering effect of the compounds in the aorta-coarcted renal hypertensive rats.
Spectrophotometric Assay for Angiotensin Converting Enzyme Inhibitors
The in vitro activity for inhibition of the angiotensin converting enzyme (ACE) was measured by the method of Cushman, D. W. and Cheung, H. S., Biochem. Pharmacol., 20, 1637-1648 (1971), using benzoyl-glycyl-histidyl-leucine as the substrate. The reaction mixture consisted of 50 μl. of potassium phosphate (500 mM., pH 10.2), […]. of sodium chloride (2500 mM.), 25 μl. of substrate (50 mM.), 30 to 50 μl. of the crude extract of ACE, 10 μl. of test compound (2.5 mM.) or vehicle and a suitable amount of distilled water to give a total volume of 250 μl. This reaction mixture was incubated for 30 minutes at 37° C. and the reaction was then terminated by the addition of 250 μl. of 1 N hydrochloric acid. The hippuric acid was then extracted with 1.5 ml. of ethyl acetate by vortex mixing for 15 seconds. After centrifugation, one ml. of th ethyl acetate layer was pipetted into a new tube and vaporated to dryness. The extracted hippuric acid was then dissolved in one ml. of water and the amount of this acid was then measured by its absorbance at 228 nm. The ACE was extracted from rabbit lung acetone powder (Pel-Freez Biol. Inc.) by blending 5 g. of the powder in 50 ml. of phosphate buffer (50 mM., pH 8.3) and then centrifuging at 40,000 g for 40 minutes. The supernatant was then kept at 5° C. and used as the enzyme source. The activity of the ACE inhibitor was calculated as the percent inhibition of ACE activity compared to the control value of that particular assay. A full dose-response inhibitory curve is then performed to determine the IC50 value which may be defined as the molar concentration of a compound that will inhibit the ACE activity by 50%.
`CC(=O)SC(CC(=O)N1CCC[C@H]1C(=O)O)C(=O)c1cccs1` (stereo partly drawn) [Example 1, 1-[3-(Acetylthio)-3-(2-thenoyl)propionyl]-L-proline] showed an IC50 of 256 nM.
`CC(=O)SC(CC(=O)N1CCC[C@H]1C(=O)O)C(=O)c1ccc(Br)s1` (stereo partly drawn) [Example 2, 1-[3-(Acetylthio)-3-(5-bromo-2-thenoyl)propionyl]-L-proline] was tested, and the IC50 was 109 nM.
In the case of `CC(=O)SC(CC(=O)N1CCC[C@H]1C(=O)O)C(=O)c1ccc(Cl)s1` (stereo partly drawn) [Example 3, 1-[3-(Acetylthio)-3-(5-chloro-2-thenoyl)propionyl]-L-proline], the IC50 is reported as 108 nM.
`CC(=O)SC(CC(=O)N1CCC[C@H]1C(=O)O)C(=O)c1csc2ccccc12` (stereo partly drawn) [Example 4, 1-[3-(Acetylthio)-3-(benzo[b]thien-3-ylcarbonyl)propionyl]-L-proline] gave an IC50 of 139 nM.
Compound `CC(=O)SC(C(=O)c1cc2ccccc2s1)C(C)C(=O)N1CCC[C@H]1C(=O)O` (stereo partly drawn) [Example 35, 1-[3-Acetylthio-3-(benzo[b]thien-2-ylcarbonyl)-2-methylpropionyl]-L-proline] has an IC50 of 21000 nM.
`CC(=O)SC(CC(=O)N1CCC[C@H]1C(=O)O)C(=O)c1ccco1` (stereo partly drawn) [Example 36, 1-[3-Acetylthio-3-(2-furoyl)propionyl]-L-proline] showed an IC50 of 675 nM.
Work on `CC(=O)SC(CC(=O)N1CCC[C@H]1C(=O)O)C(=O)c1cc2ccccc2o1` (stereo partly drawn) [Example 37, 1-[3-Acetylthio-3-(2-benzofuranylcarbonyl)propionyl]-L-proline] yielded an IC50 of 74 nM.

— patent publication US4342690A, “ω-Heteroaroyl(propionyl or butyryl)-L-prolines” (American Cyanamid Company, priority 1981, dated 1982)
